In publication PMC6327985, “Soyasaponins from Zolfino bean as aldose reductase differential inhibitors” (Journal of Enzyme Inhibition and Medicinal Chemistry, 2018):
Like-named read-outs stand apart in the source and are kept apart here.

Target: T1, human recombinant AKR1B1 (hAKR1B1) (Homo sapiens, UniProt P15121)
T1 construct: made in house
Assay: Assay of aldose reductase: hAKR1B1-catalysed NADPH-dependent reduction of L-idose or HNE, decrease in absorbance at 340 nm
Format: biochemical
Settings: for IC50: 8 mU hAKR1B1, authentic standard; for K’i (ternary enzyme-substrate-inhibitor complex dissociation constant) / Ki: Hanes-Woolf analysis, mean ± SEM; for Ki: read-out: Ki (binary enzyme-inhibitor complex dissociation constant)
Procedure: The AKR1B1 activity was determined at 37 °C as previously described, monitoring the decrease in absorbance at 340 nm linked to NADPH oxidation (ε340=6.22 mM^−1 cm^−1) through a Biochrom Libra S60 spectrophotometer. In a 0.25 M sodium phosphate buffer pH 6.8, the standard assay mixture contained 0.18 mM NADPH, 0.4 M ammonium sulphate, 0.5 mM EDTA and 4.7 mM GAL. One unit of enzyme activity is the amount that catalyses the conversion of 1 µmol of substrate/min in the above assay conditions. These assay conditions were also adopted to assess the effectiveness of inhibitors when L-idose or HNE were used, at the indicated concentrations, as substrates instead of GAL. Differential inhibition (DI) refers to the difference between the percentage inhibition observed using L-idose and HNE as substrates in the assay conditions indicated.
The human recombinant AKR1B1 (hAKR1B1) was expressed and purified to electrophoretic homogeneity as previously described. The purified enzyme (specific activity 5.3 U/mg) was stored at −80 °C in a 10 mM sodium phosphate buffer pH 7.0 containing 2 mM DTT and 30% (w/v) glycerol. Before use, the enzyme was extensively dialysed against a 10 mM sodium phosphate buffer pH 7.0.
The protein concentration was determined by the Coomassie blue staining method, using BSA as a standard protein. Statistical analysis was performed using the two-way ANOVA test carried out with Graphpad 6.0 software. IC50 determination was performed using standard statistical software (GraphPad Instat version 6.0, San Diego, CA). Results are reported as the mean of the values and the 95% confidence interval from at least three independent measurements.

[1] = substrate 0.04 mM HNE, read-out: IC50 for HNE reduction
[2] = substrate 0.8 mM L-idose, read-out: IC50 for L-idose reduction

## CC1(C)C[C@@H](O)[C@]2(C)CC[C@]3(C)C(=CC[C@@H]4[C@@]5(C)CC[C@H](O[C@@H]6O[C@H](C(=O)O)[C@@H](O)[C@H](O)[C@H]6O[C@@H]6O[C@H](CO)[C@H](O)[C@H](O)[C@H]6O[C@@H]6O[C@H](CO)[C@@H](O)[C@H](O)[C@H]6O)[C@](C)(CO)[C@@H]5CC[C@]43C)[C@@H]2C1 [SSBa, soyasaponin Ba (V)]
[1]
  IC50: 47 µM
[2]
  IC50: 40 µM
Substrate HNE
  K’i (ternary enzyme-substrate-inhibitor complex dissociation constant): 23 ± 4 µM
  Ki: 65 ± 12 µM
Substrate L-idose
  K’i (ternary enzyme-substrate-inhibitor complex dissociation constant): 24 ± 2 µM
  Ki: 66 ± 17 µM
With respect to HNE
  inhibition model: mixed inhibitor
With respect to L-idose
  inhibition model: mixed inhibitor

## C[C@@H]1O[C@@H](O[C@H]2[C@H](O[C@H]3[C@H](O[C@H]4CC[C@@]5(C)[C@@H](CC[C@]6(C)[C@@H]5CC=C5[C@@H]7CC(C)(C)C[C@@H](O)[C@]7(C)CC[C@]56C)[C@@]4(C)CO)O[C@H](C(=O)O)[C@@H](O)[C@@H]3O)O[C@H](CO)[C@H](O)[C@@H]2O)[C@H](O)[C@H](O)[C@H]1O [SSBb, soyasaponin Bb (I)]
[1]
  IC50: 360 µM
[2]
  IC50: 170 µM
Substrate HNE
  K’i (ternary enzyme-substrate-inhibitor complex dissociation constant): 248 ± 19 µM
Substrate L-idose
  K’i (ternary enzyme-substrate-inhibitor complex dissociation constant): 191 ± 11 µM
  Ki: 176 ± 35 µM
With respect to HNE
  inhibition model: uncompetitive
With respect to L-idose
  inhibition model: purely non-competitive inhibitor
